According to patent US11077070B2 (Wilmore Labs LLC, priority 2009, dated 2021):
Each block holds one molecule with its values, some of them ahead of it.

Tests used:
[1] = Pharmacokinetic study, 100 mg resveratrol, oral transmucosal resveratrol/solubilizer formulation (test) versus controls; type: in vivo, human; settings: for Cav: plasma
Method: Any adverse effects are recorded. […] These adjustments are made using the formulas […])).

[2] = Solubility of resveratrol in 3M ribose, U.V. HPLC and MS peak areas (Table 2); type: physicochemical
Description: Table 2 and 3 summarize the results.

[3] = Resveratrol solubility in ribose, U.V. HPLC and mass spectrometry peak areas (Table 1); type: physicochemical
Method: The peak areas of the LC traces using U.V. and MS spectral detection were determined. […]

[4] = trans/cis isomerisation of resveratrol in water or 3 M ribose, with or without 30 minutes U.V. light (Table 3, FIGS. 1-4); type: physicochemical; settings: for cis isomer peak area, Mass spectroscopy / cis isomer peak area, PDA (trans-316 nm, cis-284 nm) / cis isomer peak area, Tandem mass spectroscopy / trans isomer peak area, Mass spectroscopy / trans isomer peak area, PDA (trans-316 nm, cis-284 nm) / trans isomer peak area, Tandem mass spectroscopy: UV exposed 30 minutes
Description: PDA-284 nm panel: NL: 4.31E5; nm=283.5-284.5; PDA Avalon. MS Panel: NL: 3.90E6; m/z=226.60-227.60; F: -c APCI corona; sid=10.00; Full ms [100.00-1000.00] MS ICIS. Tandem MS panel: NL: 7.71E5; m/z=184.50-185.50; F: -c APCI corona; sid=10.00 Full ms2 227.00@cid45.00 [60.00-250.00] MS ICIS.

[5] = Dissolution of resveratrol in sugar or sugar alcohol solutions (observation); type: physicochemical
Method: A ribose/water solution (18 g/2 g) was heated.
In another experiment, various sucrose/water mixtures were heated to boiling point. Reservatrol was added to each sucrose/water solution. […] On cooling, resveratrol/sucrose/water mixtures formed crystalline solids composed of small crystals; in contrast, the sucrose/water solution formed a crystalline solid composed of large crystals.
In another experiment, water was added to the solid resveratrol/sucrose/water mixtures.
An aqueous solution of dextrose was prepared and heated to boiling. The resveratrol was added to the warm syrup and allowed to cool further. While still liquid, the syrup retained a capsinoid flavor. On cooling further, a white powdery mixture of crystals was formed. No capsinoid-like flavor was detected when the solid mixture was tasted.
Resveratrol was added to warm solutions of xylitol or erythritol. […] On cooling the xylitol or erythritol solution formed a crystalline solid that appeared to exclude the resveratrol. No capsaicirioid-like flavor was detected when each reservatrol/xylitol and reservatrol/erythritol solid mixture was tasted.
Water was added to the each reservatrol/xylitol and reservatrol/erythritol mixture.

[6] = 1.6 mg resveratrol in 1 ml 3M ribose
[7] = 1.6 mg resveratrol in 1 ml water
[8] = 0.4 mg/ml standard in MeOH/water
[9] = 1.3 mg resveratrol in 1 ml 1M ribose
[10] = 1.3 mg resveratrol in 1 ml water

- Cav ([1]; Control(s): 100 mg resveratrol): 34 ng/mL
- Cav ([1]; Test: 100 mg resveratrol, oral transmucosal resveratrol/solubilizer formulation): 23 ng/mL
SMILES: O=S(=O)(O)Oc1cc(O)cc(/C=C/c2ccc(O)cc2)c1 [3-sulfate, trans-resveratrol-3-O-sulfate]

- peak area, Mass spectroscopy [2, 6]: 69226333
- peak area, PDA (trans-316 nm, cis-284 nm) [2, 6]: 17477801
- peak area, Tandem mass spectroscopy [2, 6]: 11603388
- peak area, Mass spectroscopy [2, 7]: 35925663
- peak area, PDA (trans-316 nm, cis-284 nm) [2, 7]: 10448839
- peak area, Tandem mass spectroscopy [2, 7]: 6058729
- % increase of peak area, Mass spectroscopy ([2]; 3M ribose versus water): 92.7%
- % increase of peak area, PDA (trans-316 nm, cis-284 nm) ([2]; 3M ribose versus water): 67.3%
- % increase of peak area, Tandem mass spectroscopy ([2]; 3M ribose versus water): 91.5%
- Resveratrol MS peak area [3, 8]: 361620189
- Resveratrol MS/MS peak area [3, 8]: 22825783
- Resveratrol UV peak area [3, 8]: 32589198
- Resveratrol MS peak area [3, 9]: 34006422
- Resveratrol MS/MS peak area [3, 9]: 2177343
- Resveratrol UV peak area [3, 9]: 6879044
- Resveratrol MS peak area [3, 10]: 17991728
- Resveratrol MS/MS peak area [3, 10]: 1055482
- Resveratrol UV peak area [3, 10]: 3757436
- Resveratrol MS peak area ([3]; 1:1 dilution of ribose sample): 59987321
- Resveratrol MS/MS peak area ([3]; 1:1 dilution of ribose sample): 4277049
- Resveratrol UV peak area ([3]; 1:1 dilution of ribose sample): 10156011
- Resveratrol MS peak area ([3]; 1:1 dilution of water sample): 36350491
- Resveratrol MS/MS peak area ([3]; 1:1 dilution of water sample): 2235878
- Resveratrol UV peak area ([3]; 1:1 dilution of water sample): 7414378
- percentage increase in the peak area with ribose ([3]; ribose (undiluted) sample versus water sample): 83.1%
- Serum Cmax levels of resveratrol, test versus control subjects ([1]; 100 mg resveratrol): higher in test subjects
- cis isomer peak area, Mass spectroscopy ([4]; 3M ribose): 67794774
- cis isomer peak area, PDA (trans-316 nm, cis-284 nm) ([4]; 3M ribose): 3348277
- cis isomer peak area, Tandem mass spectroscopy ([4]; 3M ribose): 12957854
- trans isomer peak area, Mass spectroscopy ([4]; 3M ribose): 30056046
- trans isomer peak area, PDA (trans-316 nm, cis-284 nm) ([4]; 3M ribose): 9667985
- trans isomer peak area, Tandem mass spectroscopy ([4]; 3M ribose): 4678183
- isomers detected, PDA-316 nm panel ([4]; FIG. 1, 1.6 mg resveratrol in 1 ml water, no U.V. exposure): cis isomer is not detected
- isomers detected, PDA-316 nm panel ([4]; FIG. 2, 1.6 mg resveratrol in 1 ml 3 M ribose, no U.V. exposure): cis isomer is not detected
- cis isomer peak area, Mass spectroscopy ([4]; Water): 42202693
- cis isomer peak area, PDA (trans-316 nm, cis-284 nm) ([4]; Water): 2260306
- cis isomer peak area, Tandem mass spectroscopy ([4]; Water): 8357052
- trans isomer peak area, Mass spectroscopy ([4]; Water): 7702267
- trans isomer peak area, PDA (trans-316 nm, cis-284 nm) ([4]; Water): 3293034
- trans isomer peak area, Tandem mass spectroscopy ([4]; Water): 1489337
- solubility ([5]; aqueous dextrose solution, heated to boiling and cooled): not well soluble
- solubility ([5]; in ribose and in fructose/dextrose): soluble
- solubility in the presence of ribose ([5]; ribose/water solution (18 g/2 g), 100 mg resveratrol to 1000 mg solution, inferred from sensation in the mouth): increased
- dissolution ([5]; sucrose/water solution (1:1 v/v)): failed to dissolve
- dissolution ([5]; various sucrose/water mixtures heated to about 90° C., then cooled): failed to dissolve
- dissolution ([5]; warm solutions of xylitol or erythritol): observed not to dissolve
- behaviour on adding water ([5]; water added to reservatrol/xylitol and reservatrol/erythritol mixtures): precipitated out of solution
- behaviour on adding water ([5]; water added to the solid resveratrol/sucrose/water mixtures): precipitated out of solution
SMILES: Oc1ccc(/C=C/c2cc(O)cc(O)c2)cc1 [Resveratrol, 3,5,4′-trihydroxy-trans-stilbene]
- peak plasma level and bioavailability, test versus controls ([1]; resveratrol/solubilizer formulation by oral transmucosal route versus oral transmucosal resveratrol/sucrose or oral resveratrol/solubilizer): greater peak plasma level and bioavailability
- isomers detected, PDA-316 nm panel ([4]; FIG. 3, 1.6 mg resveratrol in 1 ml water exposed to U.V. light for 30 minutes): trans isomer and cis isomer peaks detected
- isomers detected, PDA-316 nm panel ([4]; FIG. 4, 1.6 mg resveratrol in 1 ml 3 M ribose exposed to U.V. light for 30 minutes): trans isomer and cis isomer peaks detected
